From patent US12187715B2, “Small molecule activators of Tie-2” (EyePoint Pharmaceuticals, Inc., priority 2019, dated 2025)
Entries after “also recorded” stand apart in the source; their conditions may differ. Each block holds one compound with its values, some of them ahead of it.

Experiments:
[1] = Solubility testing in water by portionwise addition until saturation; format: physicochemical
Method: The solubility of compounds 2-4 was determined by portionwise addition of the compounds to water until saturation was obtained. Water (10 mL) was added to a 20-mL vial. About 100 mg of Compound 2 was added. The suspension was stirred at room temperature for 20 minutes until the contents became a clear solution. Compound 2 (˜100 mg portionwise) was added repeatedly with 30 min stirring time between the additions. Once a suspension was obtained after continuous stirring for 2 hours, the suspension was stirred overnight. The same procedure was used for the suspension preparations of Compound 3 and Compound 4.
After stirring overnight, filtration of each sample was attempted.
An aliquot of the suspension of Compound 2 was filtered through a 0.22 micron inline syringe filter.
About 1 mL of the aqueous solutions prepared above was diluted with water by 50%. The pH of the 50% diluted solutions was adjusted to pH 7 either by 0.1 N HCl or by 0.1 N NaOH. Solubility values for the three compounds in the solutions/suspensions before and after dilution are given in the in TABLE 3.
The solubility of Compounds 2-4 was determined by portionwise addition of the compounds to water until saturation was obtained. After stirring overnight, the suspensions were filtered and analyzed by HPLC. […] The solubility of Compound 3 was >200 mg/mL. The absolute solubility of Compound 3 was not determined because in the course of analysis, the solution of Compound 3 became too viscous to stir. […] The 50% diluted solutions of Compounds 2-4 were not viscous, and the compounds remained in solution for 4 weeks. […] All of the diluted solutions were easily syringable over 4 weeks' time.

[2] = Physical stability (appearance) of the aqueous solutions standing at room temperature; format: physicochemical; settings: for Appearance of solution: undiluted
[3] = Syringability testing (200 g weight on BD 1-mL syringe plunger, 27 G needle); format: physicochemical; settings: for Syringability: time to expel 1 mL: 50% diluted solution
Method: Syringability testing was carried out by applying 200 g of weight on top of a BD 1-mL syringe plunger and measuring the time required to expel 1 mL of the saturated solutions through a 27 G needle. The times are recorded in TABLE 4. At T=0, 43 seconds were required to expel 1 mL of Compound 2, while 8 seconds were required to expel 1 mL of Compound 4. In contrast, approximately 5 minutes were required to expel only 0.1 mL of Compound 3, based on the very high viscosity of the solution relative to that of the other two.
Syringability test results of the 50% diluted solutions (TABLE 5) indicated a slight increase in viscosity (syringability test for water was 10 sec). All three solutions remained easily syringable.

[4] = HPLC purity analyses of aqueous solutions over time at room temperature (chemical stability); format: physicochemical
phospho-Akt1 (pAkt) = experiment: Phospho-Akt activation assay in human umbilical vein endothelial cells (Western blot); format: cell-based
Method: The ability of the small molecule analogues as shown in EXAMPLES 1-3 to stimulate production of phospho-Akt1 (pAkt) was tested. Akt plays a critical role in controlling cell survival and apoptosis, and Akt phosphorylation is increased by the activation of Tie-2. Akt activation can be detected by an antibody that recognizes phosphorylation on the serine 473 residue on Akt.
HUVECs were seeded at 500,000 cells/mL in chemically-defined basal media, and supplemented with distinct growth factors (EGM-2). The following growth factors were required for survival and normal phenotypic expression of endothelial characteristics: fetal bovine serum 2%, hydrocortisone, human fibroblast growth factor-B, vascular endothelial growth factor, recombinant insulin growth factor R3, ascorbic acid, human epidermal growth factor, gentamicin sulfate, amphotericin B, and heparin. Cells were derived from one donor, cultivated in 10 cm dishes, and expanded upon reaching 90% confluence. After three passages, the cells were expanded and ready for testing.
The cells were seeded at 25,000 cells/mL in 6-well plates, and covered with 2 mL of complete media. The cells were fed on day 2 of culture with 2 mL of fresh EGM-2 media. 72 hours after plating, the cells were serum starved by rinsing twice with 2 mL of sterile phosphate buffered saline, and then placed at 37° C. for 3 hours in the presence of basal EGM-2 media (1.5 mL/well without growth factors). The serum starvation allowed the cells to become quiescent.
Compounds 2-4 were dissolved in distilled deionized water at the following concentrations: • Compound 2 (Molecular weight: 622.7): 31 mg/ml. • Compound 3 (Molecular weight: 622.7): 26 mg/ml. • Compound 4 (Molecular weight: 636.7): 32 mg/ml.
All compounds were stored at 4° C. […] Stock concentrations of the above molecules were made at a final working concentration of 1 mM. Specific microliter volumes of the working concentration were added to each 6 well plate at the following concentrations: 3, 10, and 30 micromolar (μM). Cells were treated for 30 minutes.
10× cell lysis buffer was diluted fresh with dH2O. The 1× cell lysis buffer contained: 20 mM Tris-HCl (pH 7.5), 150 mM NaCl, 1 mM Na2EDTA, 1 mM EGTA, 1% Triton, 2.5 mM sodium pyrophosphate, 1 mM β-glycerophosphate, 1 mM Na3VO4, 1 μg/ml leupeptin, and 1 mM PMSF. Immediately before use, 1 mM PMSF was prepared by diluting from a stock of 1 M PMSF made up in DMSO. In addition, a 1× concentration of a Halt protease & phosphatase inhibitor cocktail was included. At the end of the 30 minute treatment, the media was discarded from the cell culture wells by shaking out, and the remaining media was aspirated off the wells. Ice-cold lysis buffer was added at 140 μL/well, and the culture was placed on ice or in a cold room for 30 minutes while rocking. Cell lysates were collected using a cell scraper, placed in microfuge tubes, and stored at −80° C. The levels of protein were quantitated using a microtiter plate BCA protein assay.
2× Laemmli sample buffer was added in equal volume to the […] cell lysis buffer, which contained the lysed endothelial cells. The solution was heated at 100° C. for 5 minutes and then sonicated for 10 seconds. After sonication, the lysates were spun by centrifuge at 4° C. for 5 minutes at 17,000 rpm. 70-100 μg of protein calculated from BCA assay prior to addition of 2× Laemmli sample were added per well of an 8% polyacrylamide gel.
Electrophoresis was performed at 150 volts for approximately 90 minutes at room temperature with 1× Laemmli running buffer. The proteins from the gel were transferred to nitrocellulose at 100 volts for 45 minutes on ice.
The nitrocellulose membranes were removed quickly without drying and placed in phosphate buffered saline (pH 7.3) with 1% nonfat dried milk. The membranes were blocked in the milk solution while rocking for 2 hours at room temperature or overnight at 4° C. […]

Physical state of the preparation ([1]; 50% dilution, T = 4 weeks): (solution)
Physical state of the preparation ([1]; Before dilution, T = 0): (viscous solution)
Solubility value in water ([1]; Before dilution, T = 5 weeks, room temperature): No change*
Amount (g) of compound added until saturation ([1]; added portionwise to 10 mL water, room temperature): 2.323 g
Filtration ([1]; filtration of the sample attempted after stirring overnight): not filtered successfully and No
solubility at 4 weeks ([1]; water, pH 7, aqueous buffer, 50% dilution with water, adjusted to pH 7, T = 4 weeks): > 115 mg/mL
solubility at 0 weeks ([1]; water, thermodynamic from solid, Before dilution, T = 0, estimated from weight added): > 230 mg/mL
solubility ([1]; water, thermodynamic from solid, Conclusions: suspensions stirred overnight, filtered and analyzed by HPLC, initial): > 200 mg/mL
Gelation or precipitation of undiluted solution ([2]; throughout the 4-week study period (Compound 2: over 5 weeks)): No gelation or precipitation
Appearance of solution ([2]; T = 0): Hazy
Appearance of solution ([2]; T = 2 week): Hazy
Appearance of solution ([2]; T = 3 week): Hazy
Appearance of solution ([2]; T = 4 week): Hazy
Appearance of solution ([2]; T = 1 day): Hazy
Appearance of solution ([2]; T = 2 day): Hazy
Appearance of solution ([2]; T = 3 day): Hazy
Appearance of solution ([2]; T = 4 day): Hazy
Appearance of solution ([2]; T = 5 day): Hazy
Appearance of solution ([2]; T = 6 day): Hazy
Syringability: time to expel 1 mL ([3]; T = 2 week): 12 s
Syringability: time to expel 1 mL ([3]; T = 3 week): 13 s
Syringability: time to expel 1 mL ([3]; T = 4 week): 15 s
Syringability: time to expel 1 mL ([3]; T = 2 day): 13 s
Syringability: time to expel 1 mL ([3]; T = 3 day): 14 s
Syringability: time to expel 1 mL ([3]; T = 4 day): 17 s
Syringability: time to expel 1 mL ([3]; T = 7 day): 15 s
Syringability of the saturated solutions (in words) ([3]; undiluted solutions): too viscous to syringe
HPLC purity ([4]; 50% diluted samples, room temperature, T = 4 weeks): 97.9%
HPLC purity ([4]; undiluted samples, T = 0 (dry sample)): 99.08%
HPLC purity ([4]; undiluted samples, room temperature, T = 5 weeks): 97.3%
HPLC purity ([4]; undiluted samples, room temperature, T = 1 day): 98.26%
Compound: COC(=O)N[C@@H](Cc1ccccc1)C(=O)N(C)[C@@H](Cc1ccc(NS(=O)(=O)[O-])cc1)c1csc(-c2cccs2)n1.[Na+] [Compound 3, sodium (4-{(S)-2-{(S)-2-[(methoxycarbonyl)amino]-N-methyl-3-phenylpropanamido}-2-[2-(thiophen-2-yl)thiazol-4-yl]ethyl}phenyl)sulfamate]
Physical appearance ([1]; after portionwise addition to 10 mL water): hazy, highly viscous mixture; also recorded: No precipitate
pAkt signal above control (phospho-Akt1 (pAkt); HUVECs, 30 μM, 30 minutes treatment): 80%
Relative potencies for activation of pAkt (phospho-Akt1 (pAkt); HUVECs, 3, 10 and 30 μM): Compound 2>Compound 4>Compound 3

Compound: CCc1csc([C@H](Cc2ccc(NS(=O)(=O)O)cc2)NC(=O)[C@H](Cc2ccccc2)NC(=O)OC)n1 [Compound 5, 4-{(S)-2-[(S)-2-(methoxycarbonylamino)-3-phenylpropanamido]-2-(4-ethylthiazol-2-yl)ethyl}phenylsulfamic acid, reference compound]
pAkt levels above control (phospho-Akt1 (pAkt); HUVECs, highest dose 10 μM, two separate experiments): 278%
